These results are taken from US20110086759A1, “CHEMICAL COMPOUNDS” (SYNGENTA CROP PROTECTION, INC., priority 2007, published 2011).

Common to all, as to format: in vivo
Assay [1] deals with Alopecurus myosuroides (ALOMY). Briefly: Pre-emergence biological efficacy, glasshouse pot test. The note with it: 312 h, pre-emergence, 1,000 g/ha, evaluated after 13 days (100=total damage; 0=no damage), read-out: Percentage damage ALOMY. In a few lines:
(§1)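 One day after seeds were sown in pots, compound was sprayed at 1000 or 250 g/ha. Plants were kept at 24/16 °C with 14 h light and 65% humidity and watered twice daily; damage was graded at day 13 (0 none, 100 total).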

In assay [2] the test system is Amaranthus retoflexus (AMARE). Described as above. The settings on record: Amaranthus retroflexus, 312 h; pre-emergence, 1,000 g/ha, evaluated after 13 days (100=total damage; 0=no damage); read-out: Percentage damage AMARE. In a few lines:
as §1

Assay [3] has as its system Echinochloa crus-galli (ECHCG). Described as above. The settings on record: 312 h, pre-emergence, 1,000 g/ha, evaluated after 13 days (100=total damage; 0=no damage), read-out: Percentage damage ECHCG. Put shortly:
as §1

The test system of assay [4] is Ipomea hederaceae (IPOHE). The assay is described as above. The note with it: Ipomoea hederacea, 312 h; pre-emergence, 1,000 g/ha, evaluated after 13 days (100=total damage; 0=no damage); read-out: Percentage damage IPOHE. Put shortly: as §1
Assay [5] deals with Setaria faberi (SETFA). The description is as above. The settings on record: 312 h, pre-emergence, 1,000 g/ha, evaluated after 13 days (100=total damage; 0=no damage), read-out: Percentage damage SETFA. Put shortly:
as §1

Assay [6] relates to Solanum nigrum (SOLNI). The description is as above. The note with it: 312 h, pre-emergence, 1,000 g/ha, evaluated after 13 days (100=total damage; 0=no damage), read-out: Percentage damage SOLNI. In a few lines:
as §1

For assay [7], the system named is Alopecurus myosuroides (ALOMY). Briefly: Post-emergence biological efficacy, glasshouse pot test. The settings on record: 312 h, post-emergence, 1,000 g/ha, evaluated after 13 days (100=total damage; 0=no damage), read-out: Percentage damage caused to weed species, ALOMY. Put shortly:
(§2)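 Plants were sown in standard soil and grown 8 days in a glasshouse (24/16° C. day/night, 14 hours light, 65% humidity), then sprayed post-emergence at 1000 or 250 g/ha from acetone/water (50:50) with 0.5% Tween 20. Damage was scored visually after 13 days (0 = none, 100 = total).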

The test system of assay [8] is Amaranthus retoflexus (AMARE). The assay is described as above. The settings on record: Amaranthus retroflexus, 312 h; post-emergence, 1,000 g/ha, evaluated after 13 days (100=total damage; 0=no damage); read-out: Percentage damage caused to weed species, AMARE. In a few lines:
as §2

For assay [9], the system named is Echinochloa crus-galli (ECHCG). The assay is described as above. The note with it: 312 h, post-emergence, 1,000 g/ha, evaluated after 13 days (100=total damage; 0=no damage), read-out: Percentage damage caused to weed species, ECHCG. In a few lines:
as §2

Assay [10] concerns Ipomea hederaceae (IPOHE). The assay is described as above. The note with it: Ipomoea hederacea, 312 h; post-emergence, 1,000 g/ha, evaluated after 13 days (100=total damage; 0=no damage); read-out: Percentage damage caused to weed species, IPOHE. Put shortly:
as §2

Assay [11] concerns Setaria faberi (SETFA). The assay is described as above. The settings on record: 312 h, post-emergence, 1,000 g/ha, evaluated after 13 days (100=total damage; 0=no damage), read-out: Percentage damage caused to weed species, SETFA. In a few lines:
as §2

In assay [12] the test system is Solanum nigrum (SOLNI). The assay is described as above. The settings on record: 312 h, post-emergence, 1,000 g/ha, evaluated after 13 days (100=total damage; 0=no damage), read-out: Percentage damage caused to weed species, SOLNI. Put shortly:
as §2

As to `COC(=O)c1nc(C2CC2)nc(NCc2c(C)cc(Cl)cc2Cl)c1Cl` [Compound 4-121, 5-Chloro-2-cyclopropyl-4-(2,4-dichloro-6-methylphenylmethyl-amino)-6-methoxy-carbonylpyrimidine], the pest or weed control at 1000 g/ha is 0% in assay [1]; 20% in assay [2]; 0% in assay [3]; 20% in [4]; 0% in assay [5]; 0% in assay [6]. In addition, the pest or weed control at 1000 g/ha stood at 20% in [7]; 100% in assay [8]; 60% in [9]; 100% in [10]; 70% in [11]; 90% in assay [12].
With `COC(=O)c1nc(C2CC2)nc(NCc2cc(OC)c(OC)c(OC)c2)c1Cl` [Compound 4-122, 5-Chloro-2-cyclopropyl-6-methoxycarbonyl-4-(3,4,5-trimethoxy-phenylmethyl-amino)pyrimidine], the pest or weed control at 1000 g/ha in assay [1] worked out at 10%; in assay [2] it was 60%; in assay [3] it was 30%; in assay [4], 90%; in assay [5] it was 20%; in assay [6], 30%. The pest or weed control at 1000 g/ha in assay [7] was determined as 20%; in [8], 100%; in assay [9], 90%; in assay [10] it was 100%; in assay [11], 90%; in assay [12], 100%.
Regarding `COC(=O)c1nc(C2CC2)nc(NCc2ccco2)c1Cl` [Compound 4-125, 5-Chloro-2-cyclopropyl-4-(furan-2-ylmethyl-amino)-6-methoxy-carbonylpyrimidine], the pest or weed control at 1000 g/ha in [1] came out at 70%; in [2], 100%; in assay [3], 80%; in assay [4], 100%; in assay [5] it was 80%; in assay [6], 90%. In addition, the pest or weed control at 1000 g/ha was 60% in [7]; 100% in [8]; 80% in assay [9]; 100% in assay [10]; 90% in assay [11]; 100% in assay [12].
As for `COC(=O)c1nc(C2CC2)nc(NCc2ccc(Br)o2)c1Cl` [Compound 4-129, 4-(5-bromofuran-2-ylmethylamino)-5-chloro-2-cyclopropyl-6-methoxycarbonyl-pyrimidine], the pest or weed control at 1000 g/ha came out at 30% in [1]; 100% in [2]; 70% in assay [3]; 100% in assay [4]; 40% in assay [5]; 100% in assay [6]. Besides, the pest or weed control at 1000 g/ha in [7] is 40%; in [8], 100%; in assay [9], 70%; in assay [10], 100%; in [11], 90%; in assay [12], 90%.
As to `COC(=O)c1nc(C2CC2)nc(NCc2ccc(C)o2)c1Cl` [Compound 4-135, 5-Chloro-2-cyclopropyl-6-methoxy carbonyl-4-(5-methylfuran-2-ylmethylamino)-pyrimidine], the pest or weed control at 1000 g/ha in assay [1] amounted to 60%; in assay [2], 100%; in assay [3] it was 100%; in [4], 100%; in [5] it was 90%; in assay [6], 100%. The pest or weed control at 1000 g/ha was found to be 60% in [7]; 100% in assay [8]; 90% in assay [9]; 100% in [10]; 90% in assay [11]; 100% in assay [12].
Regarding `COC(=O)c1nc(C2CC2)nc(NCc2cccs2)c1Cl` [Compound 4-140, 5-Chloro-2-cyclopropyl-6-methoxycarbonyl-4-(thiophen-2-ylmethylamino)-pyrimidine], the pest or weed control at 1000 g/ha in assay [1] was determined as 20%; in assay [2], 100%; in assay [3], 40%; in [4], 80%; in assay [5], 50%; in assay [6], 100%. Besides, the pest or weed control at 1000 g/ha in [7] amounted to 30%; in [8], 90%; in [9] it was 60%; in [10] it was 90%; in assay [11], 70%; in assay [12] it was 90%.
On to `COC(=O)c1nc(C2CC2)nc(NCc2ccsc2Br)c1Cl` [Compound 4-143, 4-(2-Bromothiophen-3-ylmethylamino)-5-chloro-2-cyclopropyl-6-methoxycarbonyl-pyrimidine], for which the pest or weed control at 1000 g/ha came to 0% in assay [1]; 70% in [2]; 20% in assay [3]; 80% in [4]; 0% in assay [5]; 50% in assay [6]. In addition, the pest or weed control at 1000 g/ha in assay [7] stood at 20%; in assay [8], 90%; in [9] it was 60%; in [10] it was 100%; in assay [11], 70%; in assay [12] it was 90%.
In the case of `COC(=O)c1nc(C2CC2)nc(NCc2cnc(Cl)s2)c1Cl` [Compound 4-146, 5-Chloro-4-(2-chlorothiazol-5-ylmethylamino)-2-cyclopropyl-6-methoxycarbonyl-pyrimidine], the pest or weed control at 1000 g/ha is 50% in assay [1]; 70% in assay [2]; 50% in assay [3]; 100% in assay [4]; 0% in assay [5]; 40% in [6]. The pest or weed control at 1000 g/ha in assay [7] was found to be 20%; in assay [8], 90%; in [9], 50%; in assay [10], 80%; in assay [11], 70%; in [12], 90%.
Regarding `COC(=O)c1nc(C2CC2)nc(NCc2ncco2)c1Cl` [Compound 4-148, 5-Chloro-2-cyclopropyl-6-methoxycarbonyl-4-(oxazol-2-ylmethylamino)-pyrimidine], the pest or weed control at 1000 g/ha in [1] stood at 20%; in assay [2] it was 80%; in assay [3] it was 30%; in assay [4], 100%; in assay [5] it was 20%; in [6] it was 90%. The pest or weed control at 1000 g/ha was determined as 20% in assay [7]; 100% in assay [8]; 40% in assay [9]; 60% in assay [10]; 50% in assay [11]; 80% in [12].
